In ChEMBL document CHEMBL1201862, “PubChem BioAssay data set” (2004):
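These data come from cells grown in 96-well plates and exposed to compound for 48 hours at five concentrations. The concentration for 50% growth inhibition is given as GI50.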 Activity calls are given as the source filed them. No stated cut-off is given here; in the data, active = GI50 up to about 1.1 µM and inactive = higher.

How the values were obtained:
Assay in all cases: growth of human tumour cells (NCI), 48 h
[1] = test system: SNB-19
[2] = test system: A549
[3] = test system: NCI-H522
[4] = test system: M14
[5] = test system: IGROV-1
[6] = test system: EKVX
[7] = test system: CCRF-CEM
[8] = test system: HT-29
[9] = test system: SN12C
[10] = test system: SK-OV-3
[11] = test system: OVCAR-4
[12] = test system: SK-MEL-28
[13] = test system: HCT-116
[14] = test system: UACC-62
[15] = test system: RXF 393
[16] = test system: A498
[17] = test system: HOP-62
[18] = test system: NCI-H460
[19] = test system: HCC 2998
[20] = test system: LOX IMVI

| SMILES | GI50 [1] | GI50 [2] | GI50 [3] | GI50 [4] | GI50 [5] | GI50 [6] | GI50 [7] | GI50 [8] | GI50 [9] | GI50 [10] | GI50 [11] | GI50 [12] | GI50 [13] | GI50 [14] | GI50 [15] | GI50 [16] | GI50 [17] | GI50 [18] | GI50 [19] | GI50 [20] |
| --- | --- | --- | --- | --- | --- | --- | --- | --- | --- | --- | --- | --- | --- | --- | --- | --- | --- | --- | --- | --- |
| CN(CCO)CCC1COc2ccccc2O1 (stereo not drawn) | > 10 µM (inactive) | > 10 µM (inactive) | 2.21 µM (inactive) | > 10 µM (inactive) | > 10 µM (inactive) | > 10 µM (inactive) | > 10 µM (inactive) | > 10 µM (inactive) | > 10 µM (inactive) | > 10 µM (inactive) | > 10 µM (inactive) | > 10 µM (inactive) | > 10 µM (inactive) | > 10 µM (inactive) | 7.98 µM (inactive) | > 10 µM (inactive) | > 10 µM (inactive) | > 10 µM (inactive) | > 10 µM (inactive) | > 10 µM (inactive) |
| O=C1C[C@@H](C(=O)OCc2ccccc2)NC(=O)C[C@@H](C(=O)OCc2ccccc2)NC(=O)C[C@@H](C(=O)OCc2ccccc2)N1 | 45.5 µM (inactive) | > 100 µM (inactive) | 36.6 µM (inactive) | > 92.9 µM (inactive) | 98.6 µM (inactive) | > 100 µM (inactive) | 0.0675 µM (active) | > 100 µM (inactive) | > 100 µM (inactive) | 20.8 µM (inactive) | > 100 µM (inactive) | > 100 µM (inactive) | > 84.1 µM (inactive) | 64.7 µM (inactive) | 13.3 µM (inactive) | 27.5 µM (inactive) | 33.9 µM (inactive) | > 100 µM (inactive) | > 95.9 µM (inactive) | > 100 µM (inactive) |
| CCOP(=O)(OCC)/C(C#N)=C/c1cccn1Cc1ccccc1 | 44.4 µM (inactive) | 34.8 µM (inactive) | 23.8 µM (inactive) | 48.1 µM (inactive) | 26.1 µM (inactive) | 38 µM (inactive) | 27.2 µM (inactive) | 32.7 µM (inactive) | 31.1 µM (inactive) | 53 µM (inactive) | – | 19.7 µM (inactive) | 17 µM (inactive) | 19.9 µM (inactive) | 30.8 µM (inactive) | 34.3 µM (inactive) | 40 µM (inactive) | 31.9 µM (inactive) | 35.3 µM (inactive) | 20.8 µM (inactive) |
| COc1ccc([I+]c2ccc(OC)cc2)cc1 | 96.8 µM (inactive) | 1.87 µM (inactive) | > 61.1 µM (inactive) | 54.8 µM (inactive) | > 66.8 µM (inactive) | > 75 µM (inactive) | 74.5 µM (inactive) | 39 µM (inactive) | 40.8 µM (inactive) | > 100 µM (inactive) | > 75.2 µM (inactive) | 73.6 µM (inactive) | – | > 100 µM (inactive) | > 100 µM (inactive) | > 100 µM (inactive) | 12.1 µM (inactive) | 4.47 µM (inactive) | > 100 µM (inactive) | 28.6 µM (inactive) |
| CC(=O)N(CCN1C(=O)c2ccccc2C1=O)CCN1C(=O)c2ccccc2C1=O | > 100 µM (inactive) | > 100 µM (inactive) | > 100 µM (inactive) | > 100 µM (inactive) | – | > 100 µM (inactive) | > 100 µM (inactive) | – | > 100 µM (inactive) | > 100 µM (inactive) | > 100 µM (inactive) | > 100 µM (inactive) | > 100 µM (inactive) | > 100 µM (inactive) | > 100 µM (inactive) | > 100 µM (inactive) | > 100 µM (inactive) | > 100 µM (inactive) | > 100 µM (inactive) | > 100 µM (inactive) |
| C[C@H]1[C@@H]2C[C@@H]3O[C@@]34[C@H]3CCC5Cc6nc7c(nc6C[C@@]5(C)[C@]3(O)CC(=O)[C@@]24CO[C@]12OC(C)(C)C[C@@H]2O)CC1CC[C@@H]2C3=C[C@H]4O[C@@]5(OC(C)(CO)C[C@@H]5O)[C@H](C)[C@@]4(O)[C@]3(C)[C@@H](O)CC2[C@]1(C)C7 (stereo partly drawn) | – | 0.0168 µM (active) | 0.0955 µM (active) | – | 0.0291 µM (active) | 0.0573 µM (active) | 0.0105 µM (active) | 0.014 µM (active) | > 3.52 µM (inactive) | 0.0168 µM (active) | 0.194 µM (active) | – | 0.0583 µM (active) | 0.0175 µM (active) | 0.00178 µM (active) | 0.0108 µM (active) | 0.0109 µM (active) | 0.00955 µM (active) | 0.506 µM (active) | 0.024 µM (active) |
| Cn1c2ccccc2c(=O)c2c(O)cc3c(c21)C=CC(C)(C)O3 [NORACRONYCINE] | 9.31 µM (inactive) | > 25 µM (inactive) | > 25 µM (inactive) | – | > 25 µM (inactive) | > 21.1 µM (inactive) | > 25 µM (inactive) | > 25 µM (inactive) | > 25 µM (inactive) | > 25 µM (inactive) | > 25 µM (inactive) | > 25 µM (inactive) | > 25 µM (inactive) | > 25 µM (inactive) | > 10.2 µM (inactive) | > 13.5 µM (inactive) | > 25 µM (inactive) | > 25 µM (inactive) | > 25 µM (inactive) | > 25 µM (inactive) |
| CCC1CN2CCC1CC2 (stereo not drawn) | > 100 µM (inactive) | > 100 µM (inactive) | > 100 µM (inactive) | – | > 100 µM (inactive) | > 100 µM (inactive) | > 100 µM (inactive) | > 100 µM (inactive) | > 100 µM (inactive) | > 100 µM (inactive) | > 100 µM (inactive) | > 100 µM (inactive) | > 100 µM (inactive) | > 100 µM (inactive) | > 100 µM (inactive) | > 100 µM (inactive) | > 100 µM (inactive) | > 100 µM (inactive) | > 100 µM (inactive) | > 100 µM (inactive) |
| COc1c(Cl)cc(S(=O)O)cc1Cl | > 100 µM (inactive) | – | > 100 µM (inactive) | > 100 µM (inactive) | – | > 100 µM (inactive) | > 100 µM (inactive) | > 100 µM (inactive) | > 100 µM (inactive) | > 100 µM (inactive) | > 100 µM (inactive) | > 100 µM (inactive) | > 100 µM (inactive) | > 100 µM (inactive) | > 100 µM (inactive) | > 100 µM (inactive) | > 100 µM (inactive) | > 100 µM (inactive) | > 100 µM (inactive) | > 100 µM (inactive) |
| O=C(O)CCCCCCCCC(=O)O [SEBACIC ACID] | 108 µM (inactive) | 108 µM (inactive) | > 500 µM (inactive) | – | > 500 µM (inactive) | 50 µM (inactive) | 300 µM (inactive) | > 23.2 µM (inactive) | > 321 µM (inactive) | 50 µM (inactive) | > 50 µM (inactive) | > 500 µM (inactive) | > 500 µM (inactive) | > 79.3 µM (inactive) | 50 µM (inactive) | > 23.2 µM (inactive) | > 50 µM (inactive) | 108 µM (inactive) | 50 µM (inactive) | > 500 µM (inactive) |
